Measured values as given in patent US20260207670A1, “STABILIZED BLOOD DERIVED COMPOSITION USING ANTIFIBRINOLYTIC AGENTS” (priority 2022, published 2026).

Assays:
[1] = test system: PRP fibrin clot; experiment: Speed of PRP fibrin clot disintegration (PRP gel disc diameter)
[2] = test system: COL II gene; experiment: RT-PCR of COL II gene expression in the rabbit osteoarthritis model; assay type: in vivo; details: p=0.12 (TXA), p=3.9*10-8 (PRP alone), p=2.1*10-6 (PRP+TXA)
From the text: (§1) The measurement of the expression of the genes responsible for the cell differentiation is found to be important in assessing the potential regenerative of the therapy tested. The process of tissue repair involves the overexpression of the genes that are involved in the form of messenger RNA (mRNA) which will be essential for synthesis of proteins necessary for wound healing and differentiation. Therefore, quantification of the mRNA of such a gene will reflect the efficiency and the intensity of tissue repair. Based on this principle, in the rabbit osteoarthritis model of Example 3, RT-PCR was carried out in order to quantify two genes that are correlated to repair and differentiation hyaline cartilage: the COL II gene coding for the synthesis of collagen II; and the SOX9 gene coding for the differentiation mechanisms chondrocyte.

[3] = test system: rabbit model of osteoarthritis; experiment: Arthrosis rabbit model: radiological, macroscopic and histological scores; assay type: in vivo
Procedure: Rabbits showing characteristic signs of osteoarthritis (as described in Guingamp et al., 1997; confirmed with the sacrifice of two rabbits on day 15 after induction of osteoarthritis and histology), were injected with a treatment solution as described below. The rabbits were sacrificed after 75 days and radiological observation, macroscopic observation, histological observation of the cartilage, histological observation of the synovium, histological observation of the menisci were carried out.
The rabbits were treated with either: • 1. PRP alone; or • 2. […] Physiological serum (saline solution, a placebo)
The limbs were examined radiologically by two orthogonal views (anteroposterior and medio-lateral) performed using a SAMSUNG XGO® model GU60 digital radiography system (Samsung® Electronics Co, Ltd; Korè) according to radiological constants following: Voltage: 52 kV; Intensity: 100 mA; and Load: 5 mAs. The radiographs were examined blindly by two observers. The degenerative changes are similar between the two subgroups of group control (physiological serum and TXA alone). […] This is explained by the fact that tranexamic acid prevents the destruction of the fibrin network within the joint space and allows a prolonged biological action.

[4] = test system: SOX9 gene; experiment: RT-PCR of SOX9 gene expression in the rabbit osteoarthritis model; assay type: in vivo; details: p=0.36 (TXA)
From the text: as §1

## NC[C@H]1CC[C@H](C(=O)O)CC1 [TXA, tranexamic acid]
[1]; 20 mg/mL tranexamic acid vs 10 mg/mL (Example 1)
  effect on PRP gel disc breakdown, 20 mg/mL compared with 10 mg/mL: even more beneficial effect
[1]; PRP gel discs with TXA 10 or 20 mg/ml vs pure PRP gel, diameter measured weekly over 21 days, physiological conditions
  rate of PRP gel disc breakdown: significantly reduced
[2]
  expression of COLII (RQ) compared to placebo: No significant difference
[3]; after 75 days, p=0.58 (TXA)
  synovial score (osteoarthritic synoviopathy) compared to placebo: no statistically significant differences
[3]; after 75 days, p=0.6 (TXA), p=0.07 (PRP alone), p=2.2*10-6 (PRP+TXA)
  meniscal histological score compared to placebo: no statistically significant differences
[3]; rabbits sacrificed after 75 days, p=0.092 (PRP alone)
  radiological score compared with physiological serum: similar
[4]
  expression of SOX9 gene (RQ) compared to placebo: No significant difference
